Data from patent US4937237A, “Phosphinic acid substituted aromatic steroids as inhibitors of steroid 5-60 -reductase” (SmithKline Beckman Corporation, priority 1988, dated 1990).
Where two headings read alike, the source gives them in different places.

What was measured:
[1] = target: T1, human steroid 5-α-reductase (Homo sapiens, UniProt P31213); experiment: Potency in inhibiting human steroid 5-α-reductase from hyperplastic human prostates ([14C]-testosterone conversion, Dixon plot); type: biochemical
T1 construct: Frozen human prostates were thawed and minced into small pieces; from tissue; host or cells: hyperplastic human prostate, 140,000×g particulate fraction
T1 sequence (P31213 1-254): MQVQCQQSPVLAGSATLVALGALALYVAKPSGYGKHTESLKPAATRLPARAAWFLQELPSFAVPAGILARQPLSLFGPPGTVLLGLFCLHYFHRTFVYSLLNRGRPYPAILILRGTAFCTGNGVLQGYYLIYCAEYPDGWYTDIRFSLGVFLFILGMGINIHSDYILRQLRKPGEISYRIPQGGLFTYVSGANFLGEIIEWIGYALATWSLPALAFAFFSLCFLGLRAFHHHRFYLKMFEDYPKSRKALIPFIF
Experimental: A compound of the invention, 17β-(N,N-diisopropylcarboxamide)-estr-1,3,5(10)-triene-3-phosphinic acid, was tested for potency in inhibiting human steroid 5-α-reductase using tissue from hyperplastic human prostates. In determining potency in inhibiting the human enzyme, the following procedure was employed:
Frozen human prostates were thawed and minced into small pieces (5 mm^3). The tissue was homogenized in 3 to 5 volumes of 20 mM potassium phosphate buffer, pH 6.5, containing 0.33M sucrose, 1 mM dithiothreitol, and 50 μM NADPH with a Brinkmann Polytron (Sybron Corporation, Westbury, N.Y.). The solution was subjected to sonication for 3 to 5 minutes with a Sonifier (Branson Sonic Power Co.) followed by hand homogenization in a glass-to-glass Dounce homogenizer (Kontes Glass Company, Vineland, N.J.). […]
A constant amount of [^14 C]-testosterone (52 to 55 mCi/mmol, New England Nuclear, Boston, MA) in ethanol and varying amounts of the potential inhibitor in ethanol were deposited in test tubes and concentrated to dryness in a SAVANT Speed Vac. […] The radiochemical content in the bands of the substrate and the products was determined with a BIOSCAN Imaging Scanner (Bioscan, Inc., Washington, D.C.). The percent of recovered radiolabel converted to product was calculated, from which enzyme activity was determined. […]

5-α-Reductase = settings: cited from earlier work; for Ki / Reversibility of inhibition (with Ki): Table I; for Type of inhibition of steroid 5-α-reductase, in words: literature
[2] = tested on: human steroid 5-α-reductase; settings: substrate (testosterone), separate experiment

| SMILES | Ki (5-α-Reductase; literature references) | Reversibility of inhibition (with Ki) (5-α-Reductase; literature references) | further results |
| --- | --- | --- | --- |
| CC(C)N(C(=O)[C@H]1CC[C@H]2[C@@H]3CCc4cc([PH](=O)O)ccc4[C@H]3CC[C@]12C)C(C)C [17β-(N,N-Diisopropylcarboxamide)-estr-1,3,5(10)-triene-3-phosphinic Acid] | – | – | Ki [1]: 13 nM; Potency as inhibitor of human steroid 5-α-reductase, in words ([1]; concluded from low Ki): potent inhibitor |
| C[C@]12CC[C@H]3[C@@H](CCC4=CC(=O)CC[C@@]43C)[C@@H]1CC[C@@H]2C(=O)O [(1)] | 1100 nM | Reversible | – |
| CC(=O)C1CCC2C3CC=C=CC(=O)CCC(=O)C3CCC12C (stereo not drawn) [(2)] | 1000 nM | Irreversible | – |
| CC(CO)[C@H]1CC[C@H]2[C@@H]3CC[C@H]4C(=[N+]=[N-])C(=O)CC[C@]4(C)[C@H]3CC[C@]12C (stereo partly drawn) [(3)] | – | Irreversible | Ki (5-α-Reductase; literature reference, unit inferred): 35 nM; Type of inhibition of steroid 5-α-reductase, in words (5-α-Reductase): potent, time-dependent inhibitor |
| CCN(CC)C(=O)[C@H]1CC[C@H]2[C@@H]3CC[C@H]4N(C)C(=O)CC[C@]4(C)[C@H]3CC[C@]12C [(4)] | 5 nM | Reversible | – |
| C=C1C[C@@H]2[C@H](CC[C@@]3(C)[C@H]2CC[C@]3(OC(C)=O)C(C)=O)[C@@]2(C)CCC(=O)C=C12 [(5)] | 1250 nM | Irreversible | Type of inhibition of steroid 5-α-reductase, in words (5-α-Reductase): time-dependent inactivator |
| C[C@]12CC[C@H]3[C@@H](CCC4=CC(=O)CC[C@@]43C)[C@@H]1CC[C@@H]2O [testosterone] | – | – | Km [2]: 4.5 µM |
